# Data as given in patent publication US20220226219A1, “ANTIMICROBIAL COMPOSITIONS” (Conopco, Inc., d/b/a UNILEVER, priority 2019, published 2022).
# System: Gram negative fermenting bacteria; Enterobacter gergoviae and Klebsiella species
# Assay: Liquid broth MIC assay of individual chemicals
# Format: cell-based
# Conditions: tryptic soy broth, 30° C., 24 hours, OD600, MIC = concentration at which <25% growth vs positive growth control
# Protocol: Liquid broth assays (MIC and checkerboard) were conducted to identify the minimum concentration(s) of individual and tertiary antimicrobial chemicals. A modified methodology to ISO 20776-1:2006 was utilized for the screening as follows. Stock solutions of antimicrobial chemicals and tryptic soy broth were inoculated with 1-5×10^6 microorganism mixture of Gram negative fermenting bacteria; Enterobacter gergoviae and Klebsiella species.
# Samples were incubated at 30° C. for 24 hours, after which optical densities at OD600 nm were measured.
row,SMILES,MIC
1,C=C(C)[C@H]1CC=C(C)CC1 [Limonene],2 wt %
2,C=C(CC(=O)O)C(=O)O [ltaconic Acid],0.5 wt %
3,CCCCCCOC(C)=O [Hexyl acetate],2 wt %
4,CC12CCC(CC1)C(C)(C)O2 [Eucalyptol],2 wt %
5,CC(C)=CCCC(C)CCO (stereo not shown) [Citroneol],2 wt %
6,OCCc1ccccc1 [Phenethyl Alcohol],0.5 wt %
7,CC(=O)OC/C=C(\C)CCC=C(C)C [Geranyl Acetate],2 wt %
8,C=CCc1ccc(O)c(OC)c1 [Eugenol],0.063 wt %
9,O=C([O-])c1ccccc1.[Na+] [Sodium benzoate],0.5 wt %
10,CCCCCCCC1CCC(=O)O1 (stereo not shown) [Gamma Undecalactone],2 wt %

# The next lines start with the values.
row,MIC,SMILES
1,0.125 wt %,CC1=CC[C@@H](C(C)(C)O)CC1 [Terponeol]
2,2 wt %,CCCC(=O)OCC [Ethyl Butyrate]
3,0.063 wt %,"Cc1cc(CC(C)CC(C)(C)C)n(O)c(=O)c1.NCCO (stereo not shown) [Octopirox, piroctone olamine, reference compound]"
4,2 wt %,CC(=O)OCc1ccccc1 [Benzyl Acetate]
5,2 wt %,"CC(C)=CCC/C(C)=C/CO [Geraniol Natural, Geraniol]"
6,2 wt %,CC1CCC(C(C)C)C(O)C1 (stereo not shown) [Menthol]
